In patent US6770593B1, “Fertilizer” (Mandops (UK) Limited, priority 1999, dated 2004):

Assays:
Format in all cases: in vivo
[1] = system: Spring Barley; assay: Growth of spring barley, with chlormequat (Table E1); conditions: applied at 3 leaves stage, CCC 1.25 l/ha, ATS 1.25 l/ha, KS 20 g/ha
[2] = system: Spring Barley; assay: Tillers of spring barley, with chlormequat at T1 and T2 (Table E2); conditions: applied at T1 (3 leaves stage) & T2 (prior to start of stem extension), CCC 0.8 l/ha, ATS 0.8 l/ha, KS 20 g/ha
[3] = system: Powdery Mildew; assay: Powdery mildew on spring barley, with chlormequat at T1 and T2 (Table E2); conditions: applied at T1 (3 leaves stage) & T2 (prior to start of stem extension), CCC 0.8 l/ha, ATS 0.8 l/ha, KS 20 g/ha
[4] = system: Powdery Mildew; assay: Powdery mildew on spring barley, with chlormequat (Table E1); conditions: applied at 3 leaves stage, CCC 1.25 l/ha, ATS 1.25 l/ha, KS 20 g/ha

## C[N+](C)(C)CCCl.[Cl-] [CCC, Chlormequat]
[1]
  Above Ground Dry Weight (g) Total of 10 plants: 3.7 g
  Above Ground Fresh Weight (g) Total of 10 plants: 34.0 g
  Amount of Rooting (0-9) Mean of 10 plants: 5.5
[2]
  Number of Tillers Initiated per Plant (mean of 10 plants): 3.5
[3]
  Powdery Mildew (%) at +12 days: 8%
  Powdery Mildew (%) at +15 days: 8%
  Powdery Mildew (%) at +18 days: 10%
[4]
  Powdery Mildew (%) at +15 days: 15%
